Reference: patent US11259522B2, “Control of resistant pests” (priority 2017, dated 2022)
Values after ≈ are worked out from the molar mass of the structure shown.

How the values were obtained:
[1] = test system: Tribolium castaneum strain QTC279 (resistant to malathion and bioresmethrin); test: Grain protectant bioassay on treated wheat, T. castaneum resistant; assay type: in vivo; conditions: for Progeny reduction (%): vs untreated control
[2] = test system: M. persicae (green peach aphid) insecticide-susceptible population; test: Leaf dip bioassay, green peach aphid, susceptible population; assay type: in vivo, Myzus persicae; conditions: Susceptible population, 96 hours exposure
Procedure: Each colony was maintained separately on bok choi plants ([…]) within an exclusion cage in a constant temperature room at 24° C. with a photoperiod of 16:8 LD.
Laboratory bioassays were used to determine the efficacy of flavesone against M. persicae following the leaf dip method described in Moores et al. (1994, Pesticide Biochemistry and Physiology, 49, 114-120). A pilot study was first conducted which confirmed that the leaf dip method was appropriate to elicit a clear dose response for Flavocide 500EW against M. persicae, and to determine the appropriate rate range and timing of mortality assessments (scored at 24, 48, 72 & 96 hours) (data not shown).
Bioassays were then conducted to assess the efficacy of flavesone against a susceptible and resistant population of M. persicae, and to calculate LC values. The efficacy of a conventional insecticide, pirimicarb, was tested for comparison. Nine concentrations of flavesone ranging from 1×10^−3 to 10 times the proposed field rate (Table 15), and six concentrations of pirimicarb were serially diluted and tested, along with a water control, against the susceptible and resistant aphid populations. Leaf discs (25 mm diameter) cut from bok choi leaves were submerged for 1 second in the insecticide solutions, or in the water control, and placed adaxial side up on 10 g/L agar in 35 mm petri dishes. Six replicate leaf discs were prepared per treatment. Once leaves were air-dry, eight M. persicae nymphs were transferred to each insecticide-dipped leaf disc using a fine-haired paintbrush.
After aphid introduction, each petri dish was inverted onto a lid containing a 25 mm diameter filter paper to control humidity. All petri dishes were then placed into an incubator held at 18° C.±2° C. with a photoperiod of 16:8 LD cycle. At 48 & 96 hours, aphids were scored as alive (vibrant and moving freely), dead (not moving over a 5 second period), or incapacitated (inhibited movement).
Dose-response curves were generated by plotting percentage mortality against log concentration. Mortality data was analysed using a logistic regression model with random effects. Logistic regression is suited for the analysis of binary response data (i.e. dead/alive) with the random effect component of the model controlling for the non-independence of mortality scores within replicates. […] Population differences were tested by comparing the change in model deviance with and without the population factor (different regression intercepts for each population). Differences in regression slopes between populations were tested by comparing the change in model deviance with and without the population×dose interaction term.

[3] = test system: Rhipicephalus microplus larvae, multi-resistant Tiaro reference strain; test: Larval packet test (LPT), cattle tick larvae, multi-resistant strain; assay type: in vivo; conditions: for LC50 (ppm) / LC99 (ppm): Tiaro, Probit analysis
Procedure: Filter papers (75 mm×85 mm Whatman® No. 541), with grid patterns, were impregnated on ½ of the paper with 225 μL of each solution using a micro-pipette and immediately folded in half, enveloped in polyethylene plastic and sealed with 3 bulldog clips. The impregnated papers were kept at room temperature on aluminium trays for a minimum of 60 minutes to allow for dispersal across the grid pattern of the paper prior to aliquoting of larvae. The packets were prepared in duplicate for each concentration, including the negative control.
Aliquots of approximately 100 larvae were placed into each packet using plastic disposable forceps and the packets resealed and incubated and 27° C. and 85% relative humidity (RH).
After 24 hours, the larval packets were opened and the numbers of dead and live larvae were counted under a magnification lamp. Percentage mortality was calculated and, where applicable, corrected using Abbott's Formula (Abbott, 1925, J. Economic Entomology, 18:256-257): […]
LC50 and LC99 values were determined by Probit mortality vs log concentration analysis. Probit values were derived from “Transformation of Percentages to Probit's Tables” published by Fisher R. A. and Yates F. (1938).
The LPT Assay of Example 1 was repeated using a narrow range of concentrations, 1 in 2 series, of flavesone to determine LC50 and LC99 values against the susceptible NRFS and the multi-resistant Tiaro reference strain.
The Tiaro strain of R. microplus comprises of about 30% fluazuron, 60.6% cypermethrin (SP), 57.6% flumethrin (SP), 16.2% amitraz (amidine), 11.3% DDT, 9.3% chlorpyrifos (OP) and 2.4% dieldrin resistance [2014 acaricide resistance profiling].
The stock solution of flavesone (100,000 ppm) was diluted 1 in 10 with olive oil (1 mL to 9 mL diluent) to give 10,000 ppm, which was then further diluted 1 in 2 in series (5 mL to 5 mL diluent) to give 5,000 ppm, 2,500 ppm, 1,250 ppm, 625 ppm, 312.5 ppm and 156.25 ppm concentrations.
For the preparation of the positive control, cypermethrin, a stock solution of a concentration of 10,000 ppm was prepared in 2:1 trichloroethylene (TCE)/olive oil as the solvent ([…] cypermethrin, 94.8% purity, to 10 mL solvent) and then further diluted 1 in 2 in series (5 mL to 5 mL solvent) to also give 5,000 ppm, 2,500 ppm, 1,250 ppm, 625 ppm, 312.5 ppm and 156.25 ppm.
The flavesone papers were prepared as in Example 1.
The cypermethrin papers were impregnated with 670 μL of each solution using a micro-pipette and hung on a rack in a fume-hood to allow papers to dry (evaporation of TCE) for a minimum of 60 minutes. The papers were then folded in half and sealed with three bulldog clips, placed on aluminium trays prior to aliquoting the larvae. All packets were prepared in duplicate.
A dose-response relationship was determined at 24 hours contact exposure.
Concentrations of 1,250 ppm, 625 ppm and 312.5 ppm flavesone concentrations prepared for Example 3 were used on the same day of preparation. Duplicate papers were prepared for both the NRFS and Tiaro strains (including negative controls) as described in Example 2.
Mortality was assessed at 48 hours and LC50 and LC99 values were determined by Probit mortality vs log concentration analysis.

[4] = Rhipicephalus microplus, Example 2, 24 hours
[5] = Rhipicephalus microplus, Example 4, 48 hours

For CC(C)C(=O)C1C(=O)C(C)(C)C(=O)C(C)(C)C1=O [Flavesone, 1-isobutyroyl-3,3,5,5-tetramethylcyclohexane-2,4,6-trione], the Live adult progeny ([1]; 25 mg/kg, mean ± SE) was 265.3 ± 27.7, the “Progeny reduction (%)” value ([1]; 25 mg/kg) was 17.4% and the Live adult progeny ([1]; 60 mg/kg, mean ± SE) was 204.3 ± 27.8. For the same molecule, the “Progeny reduction (%)” value ([1]; 60 mg/kg) was 36.4%, the “Progeny reduction (%)” value ([1]; 60 mg/kg, listed as flavesone) was 36% and the mortality at 25 mg/kg ([1]; Tribolium castaneum, 336 h, 25 mg/kg, 2 weeks, mean ± SE, read-out: Adult mortality (%)) was 0%. The mortality at 60 mg/kg ([1]; Tribolium castaneum, 336 h, 60 mg/kg, 2 weeks, mean ± SE, read-out: Adult mortality (%)) was 0%, the LC50 ([2]; Myzus persicae, foliar, read-out: LC50 (mg a.i./L)) was 2730 µg/mL (≈ 10.8 mM) and the “LC90 (mg a.i./L)” value [2] was 6,034 mg a.i./L. For the same molecule, the “LC99 (mg a.i./L)” value [2] was 14,330 mg a.i./L, the “cross-resistance, comparing LC50 and LC99 data between NRFS and Tiaro strains” value ([3]; Example 2, 24 hours) was “no evidence of cross-resistance” and the “LC50 (ppm)” value ([3]; Example 2, 24 hours) was 647 ppm. The “LC99 (ppm)” value ([3]; Example 2, 24 hours) was 1039 ppm, the “LC50 (ppm)” value ([3]; Example 4, 48 hours) was 521 ppm and the “LC99 (ppm)” value ([3]; Example 4, 48 hours) was 887 ppm. It also gave a mortality at 2.5 ppm ([3]; Rhipicephalus microplus, Example 2, 2.500 ppm, 24 hours) of 100%, a mortality at 156.25 ppm ([3]; Rhipicephalus microplus, Example 2, 156.25 ppm, 24 hours) of 0% and a mortality at 312.5 ppm [3, 4] of 0.13%. The mortality at 625 ppm [3, 4] was 12.8%, the mortality at 1250 ppm ([3]; Rhipicephalus microplus, Example 2, 1,250 ppm, 24 hours) was 100% and the mortality at 5000 ppm ([3]; Rhipicephalus microplus, Example 2, 5,000 ppm, 24 hours) was 100%. The mortality at 10000 ppm ([3]; Rhipicephalus microplus, Example 2, 10,000 ppm, 24 hours) was 100%, the mortality at 312.5 ppm [3, 5] was 0.97% and the mortality at 625 ppm [3, 5] was 84.1%. It also gave a mortality at 1250 ppm ([3]; Rhipicephalus microplus, Example 4, 1250 ppm, 48 hours) of 100%.
